In ChEMBL document CHEMBL3507680, “University of Dundee, Gates Library screen for HepG2 cell viability” one finds cytotoxicity data, which are given here for 98 molecules.

The structures appear in SMILES notation.

A short description of the data set: Human HepG2 cell viability assay in 384 well format. The format is toxicity, cell-based. Also noted: dose 125 nL, time 70.5 hour; cytotoxicity at 70.5 h: concentration not given beside the values. The settings on record: HepG2 cells, read-out: Inhibition.
On to `NC(=O)Cn1nc(-c2ccccc2F)ccc1=O`, for which the cytotoxicity at 70.5 h was -9.13%. With `NC(=O)C1CN(c2ccc3c(Cl)ccnc3c2F)CCO1` (stereo not drawn), the cytotoxicity at 70.5 h was -7.96%. The figure for `Cc1ccsc1-c1nnc(C2CCN(Cc3ccc(F)cc3)CC2)o1` is -21.5%. With `N#Cc1cccc(CN2C(=O)c3ccccc3CS2(=O)=O)c1`, the cytotoxicity at 70.5 h was -2.45%. On to `COc1cc(NC(=O)N(C)C(C2CC2)C2CC2)ncn1`, for which the cytotoxicity at 70.5 h was -3.68%. Consider `COCC1c2c(cnn2CC2CCOCC2)CCN1Cc1ccoc1` (stereo not drawn), for which the cytotoxicity at 70.5 h worked out at 3.09%. For the molecule `c1cncc(N2CCCC3(CN(Cc4cccs4)CCO3)C2)c1` (stereo not drawn), the cytotoxicity at 70.5 h came to 9.99%. The figure for `CS(=O)(=O)NC[C@]12COC[C@H]1CN(C(=O)C1CCSCC1)C2` is -5.88%; for `CCc1ccc2c(C3CN(CC4CCC4)C3)ncn2c1` it is -6.64%. As to `CCc1cc(NCc2ccccc2CN2CCCC2)n2ncnc2n1`, the cytotoxicity at 70.5 h came to 29.1%. As to `Fc1cccc(-c2nnn3c2COC(CNCc2cccs2)C3)c1` (stereo not drawn), the cytotoxicity at 70.5 h was determined as 1.1%. To `O=C(CCCOc1ccccc1)N1CCCC1Cn1cccn1` (stereo not drawn) belongs -3.8%; to `Cc1cnn(C2CCCN(C(=O)Cc3ccc(-n4cccn4)cc3)C2)c1` (stereo not drawn), -3.4%; to `COCCNC(=O)c1nnn(Cc2ccccc2)c1OC`, -2.5%.

Turning to `c1cc(CN2CCOCC3(CCN(CC4CCOCC4)CC3)C2)ccn1`, the cytotoxicity at 70.5 h is -7.05%.

For `Cn1c(C(F)(F)F)nn(CCNC(=O)c2nc3ccccc3s2)c1=O`, the cytotoxicity at 70.5 h was -8.57%.

For the molecule `CCN(Cc1cccc(Cl)c1)Cc1nc2c(cnn2C)c(=O)[nH]1`, the cytotoxicity at 70.5 h is -7.7%. Take `CC(C)Cc1cc(C(=O)NCC(O)CN2CCCCCC2)on1` (stereo not drawn): the cytotoxicity at 70.5 h is -3.2%.

As to `Cc1cc(C)n(CC2CCCN2C(=O)c2cncnc2C)n1` (stereo not drawn), the cytotoxicity at 70.5 h was found to be 1.29%. In the case of `CCCS(=O)(=O)N1CCC2(CC1)COCCN(C(C)=O)C2`, the cytotoxicity at 70.5 h is -4.27%. `CCOC(=O)CCC(=O)N1CCC(Oc2ncccc2Cl)CC1`: the cytotoxicity at 70.5 h is -4.05%.

`Cc1noc(C)c1CN(C)C(=O)COc1cccc(C#N)c1`: the cytotoxicity at 70.5 h is -10.8%. In the case of `CN(Cc1nc(Cc2ccccc2F)no1)CC1Cc2ccccc2O1` (stereo not drawn), the cytotoxicity at 70.5 h amounted to 8.45%.

As to `N#Cc1cccnc1N1CCC(C2CCCCCN2C(=O)C2CC2)CC1` (stereo not drawn), the cytotoxicity at 70.5 h worked out at 5.51%.

`COc1cccc(-n2nnc(C(=O)N3CCN(C(C)=O)CC3)c2C)c1`: the cytotoxicity at 70.5 h is -6.81%.

`CN(CCCNC(=O)C1CCc2cn[nH]c2C1)c1ccccc1` (stereo not drawn): the cytotoxicity at 70.5 h was -4.99%. On to `CN(CC1CC1)S(=O)(=O)c1ccc(C(F)(F)F)cc1C#N`, for which the cytotoxicity at 70.5 h was -11.7%. Take `COc1cccc(S(=O)(=O)CCN2CCn3c(C)nnc3C2)c1`: the cytotoxicity at 70.5 h was found to be 1.41%. To `O=C(CCc1ccccn1)N1CCCC(N2CCNC2=O)C1` (stereo not drawn) belongs -14.8%; to `COCc1nc(N(C)C)ncc1C(=O)Nc1ccn(C)n1`, 5.17%. As to `CCCNC(=O)CC1OCCc2ccsc21` (stereo not drawn), the cytotoxicity at 70.5 h is -6.25%.

For the molecule `CC(=O)Nc1nc(C(=O)NCCOc2ccccc2F)cs1`, the cytotoxicity at 70.5 h is -15.5%. The figure for `NC(=O)C1CCN(CCc2ccc(NCc3ccsc3)cc2)CC1` is -11.9%; for `Cc1cc(C2CCC2)nc(NCCC23CCCN2CCC3)n1` it is -8.73%. The figure for `CNS(=O)(=O)c1csc(C(=O)NCc2sccc2C)c1` is -4.77%; for `COc1cccc2c1OCC(CNC(=O)COCC(F)(F)C(F)F)C2` (stereo not drawn) it is 8.83%; for `O=C(c1cccs1)N1CCN(C(=O)c2ncoc2-c2ccco2)CC1` it is 5.95%.

For the molecule `CCC(CO)NC(=O)Cc1ccc(NC(=O)CC2=CCCCC2)cc1` (stereo not drawn), the cytotoxicity at 70.5 h was -3.34%.

In the case of `CCN1CC2(CC1=O)CN(C(=O)c1cccs1)CCN(C(=O)N(C)C)C2` (stereo not drawn), the cytotoxicity at 70.5 h is -1.77%. As for `c1cnc2c(CN3CCCCC3c3ccncn3)cnn2c1` (stereo not drawn), the cytotoxicity at 70.5 h was -8.22%. The figure for `O=C(NC[C@]12COC[C@H]1CN(Cc1cccnc1)C2)C1CCC1` is -4.65%; for `CCc1nc(C2CCCN2CCn2cncn2)no1` (stereo not drawn) it is -5.31%. On to `O=C1C(N2CC[C@@H](O)C2)CCCN1Cc1cccc(C(F)(F)F)c1` (stereo partly drawn), for which the cytotoxicity at 70.5 h is -18.9%.

For the molecule `O=C(CCCOCc1ccccc1)N1CCCC(c2ncc[nH]2)C1` (stereo not drawn), the cytotoxicity at 70.5 h is -22.8%. `CN(C)C(=O)CN1CCC2(CC1)CC(=O)c1c(ccc3ccccc13)O2`: the cytotoxicity at 70.5 h is -1.64%. Turning to `O=C1COc2ccc(S(=O)(=O)NCCC3=CCCCC3)cc2N1`, the cytotoxicity at 70.5 h was 0.831%.

Take `CN(CCc1noc(C2CC2)n1)C(=O)CCc1cc2n(n1)CCCNC2`: the cytotoxicity at 70.5 h is -9.33%.

Consider `CCc1nc(-c2cccc(C(=O)O)c2)no1`, for which the cytotoxicity at 70.5 h was determined as 16.3%.

Consider `Cc1nc(CN2CC[C@H]3[C@H]2CCN3c2ncccn2)cs1`, for which the cytotoxicity at 70.5 h is -5.71%. Regarding `Cc1occc1C(=O)N1C[C@H](Oc2ccccn2)[C@H]2OCCC[C@H]21`, the cytotoxicity at 70.5 h is -10.8%.

Take `CCN1CCCCC1C(=O)N1CCc2onc(-c3ccc(Cl)cc3)c2C1` (stereo not drawn): the cytotoxicity at 70.5 h was -12.9%. The figure for `Cc1cc(C)n(CCN2CCN(C(=O)c3cc4ccccc4o3)CC2)n1` is -0.14%. The figure for `NC(=O)CN1CCC(NC(=O)N2CCCC2c2ccncc2)CC1` (stereo not drawn) is -11.7%; for `CCN(Cc1cnn(C)c1)S(=O)(=O)N1CCCC1c1ccco1` (stereo not drawn) it is 3.59%. As to `NC(=O)NC(=O)CCSCc1cc(F)cc2cccnc12`, the cytotoxicity at 70.5 h was -29.1%. As for `CC(C)NC(=O)C1CCN(c2nc3nc[nH]c(=O)c3s2)CC1`, the cytotoxicity at 70.5 h is -21.7%. In the case of `CCN1CC(C(=O)N2CC(Oc3ccccc3Cl)C2)CC1=O` (stereo not drawn), the cytotoxicity at 70.5 h was -1.71%. Consider `O=c1[nH]cnc2c1CCN(S(=O)(=O)c1ccc(OC(F)(F)F)cc1)C2`, for which the cytotoxicity at 70.5 h is -9.4%.

Take `O=C1CC(c2ccncc2)C2(CCN(C(=O)c3cccs3)CC2)N1` (stereo not drawn): the cytotoxicity at 70.5 h is 43.8%. As for `O=C(NC[C@H]1C[C@@H]2CN(C(=O)c3ccno3)C[C@@H]2O1)C1CCC1`, the cytotoxicity at 70.5 h was -11.5%.

As for `Cn1cc(C(=O)N2CC[C@@H]3[C@@H]2CCN3Cc2cccc(F)c2)cn1`, the cytotoxicity at 70.5 h is -6.38%.

Consider `CCS(=O)(=O)N1CCCC(n2nnn(-c3ccccc3)c2=O)C1` (stereo not drawn), for which the cytotoxicity at 70.5 h was -4.32%. As to `O=C(C1CCC1)N1CCc2[nH]cnc2C12CCN(C1CCOCC1)CC2`, the cytotoxicity at 70.5 h was -0.358%.

With `Cc1ccc(Nc2c(C#N)c(=O)n(C)c(=O)n2C)cc1F`, the cytotoxicity at 70.5 h was -4.93%.

With `Cc1cccc(C(C(=O)NCCc2nc(C)cc(=O)[nH]2)N(C)C)c1` (stereo not drawn), the cytotoxicity at 70.5 h was 25.6%.

For the molecule `Cc1nnc(C(C)NCC2(c3ccc(F)cc3)CCCCC2)o1` (stereo not drawn), the cytotoxicity at 70.5 h is -5.27%. The figure for `Cc1nc(CN2C(=O)CC[C@@H]3[C@H]2CCN3C(=O)C2CCCO2)cs1` (stereo partly drawn) is -8.01%; for `Cc1nn(C)c(Cl)c1C1CCCN1C(=O)c1csnn1` (stereo not drawn) it is -4.32%. With `CCc1cnc(CN(C(C)=O)C2CCN(CCN3CCCCC3)C2)o1` (stereo not drawn), the cytotoxicity at 70.5 h was -3.61%.

Turning to `Cn1ncc(N2CCC(CNC3CC(c4ccccc4)C3)CC2)cc1=O` (stereo not drawn), the cytotoxicity at 70.5 h is -5.35%. The figure for `COc1cccc2c1OCC(C(=O)N1CCSCC1)C2` (stereo not drawn) is -8.37%.

As for `O=C1CCOC[C@]2(CN(Cc3ccccc3)C[C@H]2c2ccccc2)N1`, the cytotoxicity at 70.5 h is 26.7%. On to `NC(=O)CCn1cc(CNCc2csc(N)n2)c2ccccc21`, for which the cytotoxicity at 70.5 h is -2.33%.

`Cc1ccc(CN2CCC3(CCC(C(=O)N(C)C)O3)CC2)o1` (stereo not drawn): the cytotoxicity at 70.5 h is -23.2%.

For the molecule `CNC(=O)c1ccc(C2CN(C(=O)c3cncs3)CCO2)nc1` (stereo not drawn), the cytotoxicity at 70.5 h is -3.2%. With `Cc1cccnc1NC(=O)CSc1ccc2c(c1)OCCO2`, the cytotoxicity at 70.5 h is -9.85%. As to `CS(=O)(=O)N1CCCC(c2cncc(Nc3ccccn3)n2)C1` (stereo not drawn), the cytotoxicity at 70.5 h is -7.64%. Turning to `Cc1ncsc1CCCn1ccnc1-c1cc2n(n1)CCCNC2`, the cytotoxicity at 70.5 h is -9.03%. On to `O=C(N[C@]12CC1CN(C(=O)c1ccco1)C2)c1cccc(F)c1` (stereo partly drawn), for which the cytotoxicity at 70.5 h turned out to be 13.8%.

Take `Cc1ncsc1CN1CC[C@H]2C(=O)N(c3ccccc3)CCO[C@H]2C1`: the cytotoxicity at 70.5 h was -9.01%. To `COCC(=O)Nc1ccc(-c2noc([C@@H]3CCCN3C)n2)cn1` belongs -7.79%.

Turning to `Cc1noc(C)c1CN1CCCC2(CCN(C(=O)C3CC3)C2)C1` (stereo not drawn), the cytotoxicity at 70.5 h was -11.8%.

In the case of `CC(C)CNC(=O)N1CC[C@@H]2CN(Cc3cccnc3)S(=O)(=O)[C@@H]2CC1`, the cytotoxicity at 70.5 h is -4.92%. On to `OC(CNCCn1cccn1)COc1ccc2ccccc2c1` (stereo not drawn), for which the cytotoxicity at 70.5 h is -0.315%. Take `COCc1ccccc1C(=O)N1CCN(C2=NCC(C)(C)S2)CC1`: the cytotoxicity at 70.5 h is -5.17%.

For the molecule `CC(C)c1nc(CN2CCN(CC3CCCO3)CC2)cs1` (stereo not drawn), the cytotoxicity at 70.5 h was -2.13%.

Turning to `Cc1cc(-c2cnc(N3CCSCC3)nc2-c2ccc(C)s2)on1`, the cytotoxicity at 70.5 h is -7.01%.

For the molecule `Cc1ccc(C(=O)N(C)Cc2cc(Br)cs2)cn1`, the cytotoxicity at 70.5 h is -8.7%.

Consider `Cc1noc(CCCNC(=O)CNC(=O)c2cc3ccccc3[nH]2)n1`, for which the cytotoxicity at 70.5 h is -5.29%. For the molecule `Cc1cccc2c1OCCCC2NCc1nnc2n1CCCCC2` (stereo not drawn), the cytotoxicity at 70.5 h is -7.8%. The figure for `CC(C)c1nn(C)c(N(C)C)c1CNCc1ccnc(N(C)C)c1` is -0.315%. For `FC(F)(F)Oc1cccc(CNCc2ccc(-n3cncn3)nc2)c1`, the cytotoxicity at 70.5 h came to 26.6%.

For the molecule `O=C(NC1CCCCC1)C1CCCN(C(=O)Nc2ccccn2)C1` (stereo not drawn), the cytotoxicity at 70.5 h was -15.3%.

Regarding `OC(c1ccccn1)C1CCN(Cc2cc3n(n2)CCNC3)CC1` (stereo not drawn), the cytotoxicity at 70.5 h worked out at 17.1%. To `O=C1NCCN1C1CCN(Cc2nc(-c3ccoc3)no2)CC1` belongs 7.71%; to `CCN(C)C(=O)c1cc(-c2cn(C(C)C)cn2)n2ccccc12`, 26.7%; to `COCC1CCN(C(=O)c2cn(Cc3ccccc3F)nn2)CC1`, 5.43%. Regarding `CCc1ncc(C(=O)N2CCCCC2Cn2cccn2)s1` (stereo not drawn), the cytotoxicity at 70.5 h is -7.11%.
